Source: ChEMBL document CHEMBL6092166, “Design, synthesis and enzymatic inhibition evaluation of novel 4-hydroxy Pd-C-Ⅲ derivatives as α-glucosidase and PTP1B dual-target inhibitors” (Eur J Med Chem, 2024)
Activity calls are given as the source filed them. The calls are words filed in the database; no cut-off is given here.

Tests used:
Alpha glucosidase [1] = biological target: T1, Alpha glucosidase (Homo sapiens, UniProt O43451+P10253+P14410+Q2M2H8); experiment: Inhibition of alpha-glucosidase (unknown origin) using p-NPG as substrate preincubated for 15 mins followed by substrate addition for 30 mins by absorbance based analysis; type: protein assay
[2] = biological target: T2, Tyrosine-protein phosphatase non-receptor type 1 (Homo sapiens, UniProt P18031); experiment: Inhibition of PTP1B (unknown origin) using pNPP as substrate preincubated for 10 mins followed by substrate addition for 20 mins by absorbance based analysis
T2 sequence (P18031 whole entry): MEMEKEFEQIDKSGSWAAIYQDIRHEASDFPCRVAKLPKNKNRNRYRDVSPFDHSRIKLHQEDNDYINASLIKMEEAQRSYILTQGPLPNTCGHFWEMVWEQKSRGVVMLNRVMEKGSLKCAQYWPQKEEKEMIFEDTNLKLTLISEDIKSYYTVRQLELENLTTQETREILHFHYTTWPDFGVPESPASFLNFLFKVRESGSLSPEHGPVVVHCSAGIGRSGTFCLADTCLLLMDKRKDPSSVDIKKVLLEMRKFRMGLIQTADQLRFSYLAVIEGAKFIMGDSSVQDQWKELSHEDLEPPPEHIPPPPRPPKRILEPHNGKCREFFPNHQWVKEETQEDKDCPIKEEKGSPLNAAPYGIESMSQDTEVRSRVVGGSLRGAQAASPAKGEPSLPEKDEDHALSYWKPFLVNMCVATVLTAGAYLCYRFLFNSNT

Alpha glucosidase [3] = biological target: T1, Alpha glucosidase; experiment: Inhibition of alpha-glucosidase (unknown origin) using p-NPG as substrate incubated for 15 mins by spectrophotometric analysis; type: protein assay
Alpha glucosidase [4] = biological target: T1, Alpha glucosidase; experiment: Inhibition of alpha-glucosidase (unknown origin) activity assessed as disruption of secondary structure by measuring beta-turn content at 10 uM by Circular dichroism spectra analysis (reference value: 15.8%); type: protein assay; design: scale not given: the % may be the effect or the level left
Alpha glucosidase [5] = biological target: T1, Alpha glucosidase; experiment: Inhibition of alpha-glucosidase (unknown origin) activity assessed as disruption of secondary structure by measuring random coil content at 30 uM by Circular dichroism spectra analysis (reference value: 27.1%); type: protein assay; design: scale not given: the % may be the effect or the level left
Alpha glucosidase [6] = biological target: T1, Alpha glucosidase; experiment: Inhibition of alpha-glucosidase (unknown origin) activity assessed as disruption of secondary structure by measuring random coil content at 40 uM by Circular dichroism spectra analysis (reference value: 27.1%); type: protein assay; design: scale not given: the % may be the effect or the level left
[7] = biological target: T3, Tyrosine-protein phosphatase non-receptor type 1 (Homo sapiens) (UniProt P18031); experiment: Inhibition of PTP1B (unknown origin) in human HepG2 cells assessed as downregulation of PTP1B protein level at 50 uM at 40 to 60 degreeC incubated for 6 hrs by Western blot based Cellular thermal shift assay; type: cell-based
T3 sequence (whole entry): T2 sequence (P18031 whole entry)

Alpha glucosidase [8] = biological target: T1, Alpha glucosidase; experiment: Inhibition of alpha-glucosidase (unknown origin) activity assessed as disruption of secondary structure by measuring random coil content at 50 uM by Circular dichroism spectra analysis (reference value: 27.1%); type: protein assay; design: scale not given: the % may be the effect or the level left
Alpha glucosidase [9] = biological target: T1, Alpha glucosidase; experiment: Inhibition of alpha-glucosidase (unknown origin) activity assessed as disruption of secondary structure by measuring beta-sheet content at 40 uM by Circular dichroism spectra analysis (reference value: 13.9%); type: protein assay; design: scale not given: the % may be the effect or the level left
Alpha glucosidase [10] = biological target: T1, Alpha glucosidase; experiment: Binding affinity to alpha-glucosidase (unknown origin) assessed as decreased fluorescence intensity by measuring peak 1 (lamda ex/lamda em: 315/375 nm) and peak 2 ((lamda ex/lamda em: 225/395 nm) by 3D fluorescence spectra analysis; type: protein assay
Mus musculus [11] = experiment: Reduction in blood glucose concentration in male Kunming mouse at 20 mg/kg preadministered for 40 mins and measured after 120 mins by sucrose loading test; type: functional, organism-based
Alpha glucosidase [12] = biological target: T1, Alpha glucosidase; experiment: Inhibition of alpha-glucosidase (unknown origin) activity assessed as disruption of secondary structure by measuring beta-sheet content at 10 uM by Circular dichroism spectra analysis (reference value: 13.9%); type: protein assay; design: scale not given: the % may be the effect or the level left
Alpha glucosidase [13] = biological target: T1, Alpha glucosidase; experiment: Binding affinity to alpha-glucosidase (unknown origin) by fluorescence based analysis; type: protein assay
Alpha glucosidase [14] = biological target: T1, Alpha glucosidase; experiment: Inhibition of alpha-glucosidase (unknown origin) activity assessed as disruption of secondary structure by measuring alpha-helix content at 40 uM by Circular dichroism spectra analysis (reference value: 40.0%); type: protein assay; design: scale not given: the % may be the effect or the level left
Alpha glucosidase [15] = biological target: T1, Alpha glucosidase; experiment: Binding affinity to alpha-glucosidase (unknown origin) assessed as association constant by fluorescence based analysis; type: protein assay
Alpha glucosidase [16] = biological target: T1, Alpha glucosidase; experiment: Binding affinity to alpha-glucosidase (unknown origin) assessed as collision quenching by fluorescence based analysis; type: protein assay
Alpha glucosidase [17] = biological target: T1, Alpha glucosidase; experiment: Binding affinity to alpha-glucosidase (unknown origin) using p-NPG as substrate assessed as enzyme-substrate complex inhibition constant at 0 to 20 uM incubated for 15 mins by Lineweaver-Burk double reciprocal plot analysis; type: protein assay; conditions: dose 0-20 µM
Alpha glucosidase [18] = biological target: T1, Alpha glucosidase; experiment: Binding affinity to alpha-glucosidase (unknown origin) assessed as quenching constant by fluorescence based analysis; type: protein assay
Alpha glucosidase [19] = biological target: T1, Alpha glucosidase; experiment: Inhibition of alpha-glucosidase (unknown origin) activity assessed as disruption of secondary structure by measuring beta-turn content at 50 uM by Circular dichroism spectra analysis (reference value: 15.8%); type: protein assay; design: scale not given: the % may be the effect or the level left
Alpha glucosidase [20] = biological target: T1, Alpha glucosidase; experiment: Binding affinity to alpha-glucosidase (unknown origin) assessed as fluorescence intensity at 12.5 uM by fluorescence based analysis (reference value: 313.09); type: protein assay
Alpha glucosidase [21] = biological target: T1, Alpha glucosidase; experiment: Mixed inhibition of alpha-glucosidase (unknown origin) using p-NPG as substrate at 0 to 20 uM incubated for 15 mins by Lineweaver-Burk double reciprocal plot analysis; type: protein assay; conditions: dose 0-20 µM
Alpha glucosidase [22] = biological target: T1, Alpha glucosidase; experiment: Inhibition of alpha-glucosidase (unknown origin) activity assessed as disruption of secondary structure by measuring alpha-helix content at 50 uM by Circular dichroism spectra analysis (reference value: 40.0%); type: protein assay; design: scale not given: the % may be the effect or the level left
[23] = biological target: T2, Tyrosine-protein phosphatase non-receptor type 1; experiment: Inhibition of PTP1B (unknown origin)
Mus musculus [24] = experiment: Reduction in blood glucose concentration in male Kunming mouse assessed as decrease in glucose AUC at 20 mg/kg preadministered for 40 mins and measured after 120 mins by sucrose loading test relative to control; type: functional, organism-based
Alpha glucosidase [25] = biological target: T1, Alpha glucosidase; experiment: Inhibition of alpha-glucosidase (unknown origin) activity assessed as disruption of secondary structure by measuring alpha-helix content at 10 uM by Circular dichroism spectra analysis (reference value: 40.0%); type: protein assay; design: scale not given: the % may be the effect or the level left
Alpha glucosidase [26] = biological target: T1, Alpha glucosidase; experiment: Inhibition of alpha-glucosidase (unknown origin) activity assessed as disruption of secondary structure by measuring beta-sheet content at 30 uM by Circular dichroism spectra analysis (reference value: 13.9%); type: protein assay; design: scale not given: the % may be the effect or the level left
[27] = Cytotoxicity against human HEK293 cells assessed as cell survival at 250 uM incubated for 24 hrs by MTT assay; type: toxicity, cell-based; conditions: read-out: Survival
Alpha glucosidase [28] = biological target: T1, Alpha glucosidase; experiment: Inhibition of alpha-glucosidase (unknown origin) activity assessed as disruption of secondary structure by measuring beta-turn content at 30 uM by Circular dichroism spectra analysis (reference value: 15.8%); type: protein assay; design: scale not given: the % may be the effect or the level left
Alpha glucosidase [29] = biological target: T1, Alpha glucosidase; experiment: Inhibition of alpha-glucosidase (unknown origin) activity assessed as disruption of secondary structure by measuring beta-turn content at 40 uM by Circular dichroism spectra analysis (reference value: 15.8%); type: protein assay; design: scale not given: the % may be the effect or the level left
Alpha glucosidase [30] = biological target: T1, Alpha glucosidase; experiment: Mixed inhibition of alpha-glucosidase (unknown origin) using p-NPG as substrate assessed as increased in Km and decreased in Vmax at 0 to 20 uM incubated for 15 mins by Lineweaver-Burk double reciprocal plot analysis; type: protein assay; conditions: dose 0-20 µM
Alpha glucosidase [31] = biological target: T1, Alpha glucosidase; experiment: Inhibition of alpha-glucosidase (unknown origin) activity assessed as disruption of secondary structure by measuring beta-sheet content at 50 uM by Circular dichroism spectra analysis (reference value: 13.9%); type: protein assay; design: scale not given: the % may be the effect or the level left
Alpha glucosidase [32] = biological target: T1, Alpha glucosidase; experiment: Inhibition of alpha-glucosidase (unknown origin) activity assessed as disruption of secondary structure by measuring random coil content at 10 uM by Circular dichroism spectra analysis (reference value: 27.1%); type: protein assay; design: scale not given: the % may be the effect or the level left
[33] = Inhibition of alpha-amylase (unknown origin); design: species or system Homo sapiens
Alpha glucosidase [34] = biological target: T1, Alpha glucosidase; experiment: Binding affinity to alpha-glucosidase (unknown origin) using p-NPG as substrate assessed as free inhibition constant at 0 to 20 uM incubated for 15 mins by Lineweaver-Burk double reciprocal plot analysis; type: protein assay
Alpha glucosidase [35] = biological target: T1, Alpha glucosidase; experiment: Inhibition of alpha-glucosidase (unknown origin) activity assessed as disruption of secondary structure by measuring alpha-helix content at 30 uM by Circular dichroism spectra analysis (reference value: 40.0%); type: protein assay; design: scale not given: the % may be the effect or the level left
Alpha glucosidase [36] = biological target: T1, Alpha glucosidase; experiment: Binding affinity to alpha-glucosidase (unknown origin) assessed as Stem-Volmer quenching constant by fluorescence based analysis; type: protein assay

Work on O=C(/C=C/c1ccc(Cl)cc1Cl)OCCOc1ccc2ccc(=O)oc2c1 yielded an IC50 (Alpha glucosidase [1]) of 116.5 µM.
O=C(/C=C/c1ccccc1[N+](=O)[O-])OCCOc1ccc2ccc(=O)oc2c1 gave an IC50 (Alpha glucosidase [1]) of 299.7 µM.
For O=C(/C=C/c1ccc(F)cc1)OCCOc1ccc2ccc(=O)oc2c1, the IC50 (Alpha glucosidase [1]) was > 300 µM.
Molecule O=C(/C=C/c1ccccc1Cl)OCCOc1ccc2ccc(=O)oc2c1 has an IC50 (Alpha glucosidase [1]) of 258.7 µM.
CC(C)c1cc2cc3ccc(=O)oc3cc2o1 showed an IC50 [2] of 10.8 µM and an IC50 (Alpha glucosidase [3]) of 85.8 µM.
For Cc1cc(=O)oc2c(C)c(OCCOC(=O)/C=C/c3ccc(Cl)cc3Cl)ccc12, the IC50 (Alpha glucosidase [1]) was > 300 µM.
Cc1c(C)c2c(C)cc(OCCOC(=O)/C=C/c3ccc(Cl)cc3Cl)cc2oc1=O showed an Activity (Alpha glucosidase [4]) of 16.3%, an Activity (Alpha glucosidase [5]) of 32.7% and an Activity (Alpha glucosidase [6]) of 35.4%. The inhibition [7] was “Active”, the Activity (Alpha glucosidase [8]) was 36.3% and the Activity (Alpha glucosidase [9]) was 20.2%. The inhibition (Alpha glucosidase [10]) was “Active; Peak 1 Reflected The Absorption Peak Of Tyrosine Residues And Tryptophan Residues And Peak 2 Was Fluorescence Feature Of Polypeptide Backbone Structure”, the Activity (Mus musculus [11]) was “Active” and the Activity (Alpha glucosidase [12]) was 15.3%. The Activity (Alpha glucosidase [13]) was “Active; Wavelength Of Maximum Emission Peak Red Shifted From 335 Nm To 340 Nm”, the Activity (Alpha glucosidase [14]) was 28.3% and the ka (Alpha glucosidase [15]) was 2.09 10^3L/mol. The K (Alpha glucosidase [16]) was 2 10^10L/mol/s, the Kis (Alpha glucosidase [17]) was 0.17 µM and the Kq (Alpha glucosidase [18]) was 9.7 10^12L/mol/s. The Activity (Alpha glucosidase [19]) was 18%, the Flu intensity (Alpha glucosidase [20]) was 144 and the inhibition (Alpha glucosidase [21]) was “Active; Intersection In Second Quadrant Of Double Reciprocal Graph Observed; Compound Binds To Free Enzyme And Enzyme-Substrate Complex”. It also gave an Activity (Alpha glucosidase [22]) of 27.6%, an IC50 [23] of 47 µM and an IC50 (Alpha glucosidase [1]) of 66.3 µM. The Activity (Mus musculus [24]) was “Active”, the Activity (Alpha glucosidase [25]) was 37.1% and the Activity (Alpha glucosidase [26]) was 17.9%. It also gave a viability at 24 h, 250 µM [27] of 81.8%, an Activity (Alpha glucosidase [28]) of 17.1% and an Activity (Alpha glucosidase [29]) of 17.8%. The inhibition (Alpha glucosidase [30]) was “Active”, the Activity (Alpha glucosidase [31]) was 20.9% and the Activity (Alpha glucosidase [32]) was 29.1%. The IC50 [33] was 30.6 µM, the Ki (Alpha glucosidase [34]) was 0.25 µM and the Activity (Alpha glucosidase [35]) was 32.2%. The KSV (Alpha glucosidase [36]) was 9.7 10^4L/mol.
For O=C(/C=C/c1ccccc1)OCCOc1ccc2ccc(=O)oc2c1, the IC50 (Alpha glucosidase [1]) was 235.6 µM.
In the case of CC1(C)Oc2cc3oc(=O)ccc3cc2C[C@@H]1O [DECURSINOL], the IC50 [2] is reported as 58.9 µM and the IC50 (Alpha glucosidase [3]) is reported as 65.3 µM.
Work on COc1ccc(/C=C/C(=O)OCCOc2ccc3ccc(=O)oc3c2)cc1Br yielded an IC50 (Alpha glucosidase [1]) of 286.2 µM.
In the case of O=C(/C=C/c1ccc2ccccc2c1)OCCOc1ccc2ccc(=O)oc2c1, the IC50 (Alpha glucosidase [1]) is reported as > 300 µM.
For O=C(/C=C/c1cccc(F)c1)OCCOc1ccc2ccc(=O)oc2c1, the IC50 (Alpha glucosidase [1]) was > 300 µM.
For O=C(/C=C/c1cccc(Cl)c1)OCCOc1ccc2ccc(=O)oc2c1, the IC50 (Alpha glucosidase [1]) was > 300 µM.
In the case of O=C(/C=C/c1cccc(Br)c1)OCCOc1ccc2ccc(=O)oc2c1, the IC50 (Alpha glucosidase [1]) is reported as 132.7 µM.
In the case of O=C(OCCCCOc1ccc2ccc(=O)oc2c1)c1ccc(Cl)cc1Cl, the IC50 (Alpha glucosidase [1]) is reported as > 300 µM.
